The values that follow come from patent US7811997B2, “Composition containing total triterpenoid sapogenins extracted from bamboo, and the preparation method and use thereof” (priority 2002, dated 2010).

For test [1] the following is noted: compounds from bamboo shoot sheath; Sakai 1999; cited from earlier work.
Test [2] concerns P388 mouse leukemia cells. Description: Growth inhibition of P388 cells (MTT reduction method, 48 h). The test is classed as cell-based. How it is done: […] growth […] The effect time was 48 h and 72 h, respectively.
(§1) 10^−5, 10^−6 and 10^−7 mol/L were determined as three critical levels. Invalid, weak effect and strong effect were determined as three evaluation indices.
On the technique in general: Tetrazolium assays rely on reduction of a dye to a coloured formazan, in cell work by metabolically active cells.

For test [3], the system named is A549 human lung adenocarcinoma cells. Description: Growth inhibition of A549 cells (SRB protein coloring method, 72 h). The test is classed as cell-based. How it is done: Sulforhodamine B (SRB) protein staining method and microculture tetrozolium (MTT) reduction method were used to measure the growth inhibitory effects of tumor cells by EZR2002 with the test objects of P388 mouse leukemia cells and A549 human lung adenocarcinoma cells, respectively. The effect time was 48 h and 72 h, respectively.
as §1

Test [4] deals with A375 (human malanoma). Description: MTT proliferation inhibition, A375 cells. The test is classed as cell-based. Particulars: Homo sapiens, read-out: Inhibitory rate (%). An excerpt:
(§2) The Silica Gel Column Chromatography and Countercurrent Chromatography preparation techniques were used to obtain Friedelin monomer extracted from EZR2002 for the sake of evaluating its anti-tumor activity further. The purity of this monomer determined by GC-MS analysis was 90.5%.
(§3) A375 (human malanoma), L929 (mouse lung epithelial tumor), Hela (human cervical tumor) and THP-1 (human macrophage tumor) cell lines were used for active filtration test in this experiment. Among these cell lines, A375, L929 and Hela were adherent cells while THP-1 was a kind of suspended cell.
(§4) All cells were maintained in the RPMI-1640 culture medium supplemented with 10% fetal calf serum, penicillin (100 U/mL), streptomycin (100 μg/mL) and 0.2% NaHCO3. These supplements were dissolved in deionized water and 0.22 μm filtration membrane was used for filter sterilization. The fetal calf serum was inactivated 30 min at 56° C. prior to an experiment. Cells were cultured in a humidified incubator of 5% CO2 at 37° C.
(§5) A375, L929 and Hela cells in logarithmic growth phases were seeded at a cell density of approximately 5×10^4 cells/mL in 96 pore plates (100 μL/well). Furthermore, THP-1 cell was seeded at a cell density of approximately 1×10^5 cells/mL because it was smaller than others. Samples were added in suspended cells after culturing 4 h and in adherent cells after culturing 12 h. Friedelin was dissolved in DMSO in advance and then in the culture medium with the ultrasonic treatment, where the final concentration of the solvent in the culture medium was <0.1% (v/v). Sample was added for 7.5, 15, 30, 60, 120, 240, 480 and 960 μmol/L. Each level had four parallel pores and a negative control. The cells were incubated for 24 and 48 h and then 15 μL/well MTT solvent (5 mg/mL) was added.
(§6) The cells were incubated for 48 h, followed by centrifugation at 1500 rpm for 5 min. The supernatant was removed and 150 μL/well DMSO was added, followed by micro-vibrator shocking for 10 min and crystal dissolving completely. The absorbance (OD value) was measured by enzyme-labeled meter at 492 nm. Furthermore, the inhibitory rate of cell proliferation and the IC50 value of friedelin were counted by using Bliss method.
(§7) The de-methyl-cantharidin was taken as the positive control and the inhibitory rate of A375, L929 and Hela cells were measured by adding de-methyl-cantharidin (120 μmol/L) for 24 and 48 h (Table 8). Furthermore, the corresponding data of Friedelin were counted.

The test system of test [5] is L929 (mouse lung epithelial tumor). Description: MTT proliferation inhibition, L929 cells. The test is classed as cell-based. Particulars: Mus musculus, read-out: Inhibitory rate (%).
Source text: as §2, §3, §4, §5, §6, §7

The test system of test [6] is Hela (human cervical tumor). Description: MTT proliferation inhibition, Hela cells. The test is classed as cell-based. Particulars: Homo sapiens, HeLa, read-out: Inhibitory rate (%).
Source text: as §2, §3, §4, §5, §6, §7

Like-named read-outs stand apart in the source and are kept apart here.

Consider `COc1cc(-c2cc(=O)c3c(O)cc(O)cc3o2)cc(OC)c1O` [tricin], for which the “anti-oxidative activity relative to that of α-tocopherol” value in test [1] was about 10%.

As to `CC[C@]1(O)C[C@H]2CN(CCc3c([nH]c4ccccc34)[C@@](C(=O)OC)(c3cc4c(cc3OC)N(C=O)[C@H]3[C@@](O)(C(=O)OC)[C@H](OC(C)=O)[C@]5(CC)C=CCN6CC[C@]43[C@@H]65)C2)C1` [Vincristin], the results for the Evaluation result in test [2] and in test [3] were “Strong” and “Weak”, respectively. In addition, the “Inhibition rate (%)” value is reported as 93.1% in test [2] (sample level 10^−4 mol/L); 94.3% in test [2] (sample level 10^−5 mol/L); 94.8% in test [2] (sample level 10^−6 mol/L); 94.7% in test [2] (sample level 10^−7 mol/L); 93.2% in test [2] (sample level 10^−8 mol/L); 71.3% in test [3] (sample level 10^−4 mol/L). Besides, the “Inhibition rate (%)” value is on record as 71.6% in test [3] (sample level 10^−5 mol/L), 66.5% in test [3] (sample level 10^−6 mol/L), 44.3% in test [3] (sample level 10^−7 mol/L) and 9.6% in test [3] (sample level 10^−8 mol/L).

Turning to `O=C1c2c(O)cc(O)cc2O[C@H](c2ccc(O)c(O)c2)[C@H]1O` [taxifolin], the “anti-oxidative activity relative to that of α-tocopherol” value in test [1] was about 1%.

Regarding `O=C1OC(=O)C2C3CCC(O3)C12` (centres unmarked) [De-methyl-cantharidin, de-methyl-cantharidin, reference compound], the inhibition at 120 µM worked out at 38.6% in test [4] (A-375, 24 h); 50.4% in test [4] (A-375, 48 h); 40.5% in test [5] (L929, 24 h); 34.4% in test [5] (L929, 48 h); 34.1% in test [6] (24 h); 43.7% in test [6] (48 h).
